The test is filed under the species Cavia porcellus. The test can be described thus: The compound was tested for inhibition of muscarinic responses in guinea pig ileal longitudinal smooth muscle. The format is functional, Muscle tissue.
On to `COC(=O)C1=C(C)NC(C)=C(C(=O)OC)C1c1ccc(N(C)C)cc1`, for which the ID50 amounted to 50000 nM.

Compound `COC(=O)C1=C(C)N=C(C)/C(=C(\O)OC)C1c1c(F)c(F)c(F)c(F)c1F` (centres undefined) came in with an ID50 of 0.9 nM. The figure for `COC(=O)C1=C(C)N=C(C)/C(=C(\O)OC)C1c1cccc(C#N)c1` (centres undefined) is 300 nM; for `COC(=O)C1=C(C)NC(C)=C(C(=O)OC)C1c1ccccc1[N+](=O)[O-]` [NIFEDIPINE] it is 5.1 nM.

Values taken from ChEMBL document CHEMBL1121625, “Crystal structures of calcium channel antagonists: 2,6-dimethyl-3,5-dicarbomethoxy-4-[2-nitro-, 3-cyano-, 4-(dimethylamino)-, and 2,3,4,5,6-pentafluorophenyl]-1,4-dihydropyridine” (1980).
